Reference: patent US20250000847A1, “TREATMENT OF NEURODEGENERATIVE DISEASES WITH HDAC INHIBITORS” (CASE WESTERN RESERVE UNIVERSITY, priority 2021, published 2025)

Assays:
[1] = tested on: acetylated histone 4 (AcH4); assay: Acetylated histone 4 in vivo (target engagement); set-up: species or system mouse; conditions: chronic daily 10 mg/kg, then two days of 5 mg/kg LPS
Description: Mice were perfused with PBS followed by 4% paraformaldehyde, after which brains were extracted and cryopreserved in 30% sucrose then frozen in OCT and sectioned. The stain slides were washed with PBS then incubated overnight with primary antibody against acetyl-Histone H4 (EMD Millipore, 06-866). After primary incubation slides were then washed and labeled with AlexaFluor secondary antibodies (ThermoFisher). Images were captured on a Hamamatsu Nanozoomer S60 Slide scanner with NDP 2.0 software. Image analysis was performed using Perkin Elmer Columbus automated software.

[2] = Pharmacokinetics, brain tissue; type: in vivo, mouse
Description: Mice were then perfused with saline to remove blood from the brain. Brain tissue was then collected and snap frozen. Brain tissues were thawed at room temperature and homogenized in PBS. Calibration standards and study samples were extracted with 3× volume of acetonitrile containing 0.1% formic acid+200 ng/ml internal standard solution. Samples were then vortexed each for 1 minute and then transferred to an Eppendorf R5417R and centrifuged at 14000 rpm for 7 minutes. Following extraction of tissue homogenate calibrators and study samples were transferred directly to an autosampler microtiter plate for analysis. Samples were analyzed by LC-MS-MS in the positive ion electrospray ionization mode.

[3] = tested on: very long chain fatty acids (VLCFA); assay: Very long chain fatty acids produced by reactive astrocytes; type: cell-based; conditions: compared to cells treated with DMSO
[4] = tested on: MHC Class I (H-2Kb) bound to OVA257-264 on reactive astrocytes; assay: OVA257-264 peptide antigen cross presentation assay; type: cell-based, mouse
Description: To test whether HDAC inhibitors block the ability of reactive astrocytes to cross present exogenous antigen, cells were plated down in 96-well plates at a density of about 500 cells/mm^2. Cells were then treated with HDAC inhibitors for 1 hr prior to the addition of reactive astrocyte driving factors as the concentrations stated above. Cells were incubated for 24 hrs, after which, media was washed out and replaced with media containing the peptide fragment ovalbumin 257-264 (OVA257-264). Cells were then incubated overnight, and then stained for 2 hrs at 37° C. with APC-conjugated antibody against MHC Class I (H-2Kb) bound to OVA257-264, then visualized. The percent of H-2Kb positive cells as a percent of total live cells was determined (FIG. 3).
After 24 hours of treatment, these cells were cultured in the presence of the OVA257264 Peptide (GenScript RP10611 or Sigma S7951). After 12 hours, the cells were live-stained for two hours using a conjugated antibody targeted against an OVA257-264 peptide antigen. The cells were then fixed and imaged using the PerkinElmer Operetta CLS High-Content Analysis System.

[5] = tested on: other HDAC; conditions: at up to 15 μM; cited from earlier work
[6] = tested on: GBP2+ reactive astrocytes; assay: Lipopolysaccharide (LPS) model of neuroinflammation, GBP2+ reactive astrocytes in brain; type: in vivo, mouse
Description: After which, brain tissue was collected from the mice and processed for in situ hybridization with probes targeting GFAP as a general astrocyte marker, and the reactive astrocyte-specific marker GBP2.
For in vivo studies in situ hybridization was performed using RNAscope Multiplex Fluorescent V2 Assay (ACD Bio, 323136) according to manufacturer's instructions for fixed frozen samples. Briefly, tissue was prepared by first dehydrating with increasingly higher percentages of ethanol, then dried, blocked with hydrogen peroxide, followed by antigen retrieval for 5 minutes, dried again, and then protein was digested using provided Protease III. RNA targeting probes purchased from ACD Bio were then annealed at 40° C. for 2 hrs, followed by washing and a series of amplification steps before finally tagging the RNA with Opal Dye fluorophores (Perkin Elmer). In situ hybridization Images were captured on a Hamamatsu Nanozoomer S60 Slide scanner with NDP 2.0 software. Image analysis was performed using Perkin Elmer Columbus automated software.

[7] = tested on: CCL5; assay: CCL5 secretion by reactive astrocytes (ELISA); type: cell-based, mouse; conditions: for reduction of CCL5 secretion: compared to vehicle control
Description: Astrocytes were plated and treated exactly as described for the antigen cross presentation assay. However, after 24 hrs of incubation with either reactive astrocyte driving factors alone or with HDAC inhibitor treatment, conditioned media from the cells was collected and assayed for CCL5 using a commercially available colorimetric ELISA kit (RnD Cat #: DY478-05). Data was then fit to a standard four parameter logistic (4PL) curve and presented as pg/mL/cell, normalized to reactive astrocytes plus DMSO vehicle (FIG. 4).
Media was collected from mouse P2 primary astrocytes that had been cultured for 24 hrs in the presence of cytokines with and without HDAC3 inhibitors and compared to media from astrocytes not treated with cytokines. The concentration of CCL5, a cytokine secreted by reactive astrocytes, was measured in each of the respective media conditions based on the direct adsorption of CCL5 to a pre-coated capture antibody on the ELISA assay plate. The ELISA sandwich assay was performed according to the manufacturer's instructions (DY478-05, R&D Systems). Relative CCL5 concentration were measured based on absorbance measured by a plate reader.

[8] = tested on: Gbp2 and Psmb8; assay: Gene expression in cultured human astrocytes (qPCR); type: cell-based
Description: Human induced pluripotent stem cells (iPSCs) were cultured to differentiate into astrocytes as described by Perriot et al. (2018). In short, iPSC colonies were placed in neural induction media for 10 days until neural rosettes could be picked, dissociated, and plated in a glial expansion medium. These cells were allowed to proliferate and become a homogenous population of glial progenitor cells (GPCs) over eight passages on poly-L-ornithine and laminin-coated plates. These GPCs were then passaged onto a Matrigel-coated plate to culture in an astrocyte induction media for two weeks, which was followed by culturing for another four weeks in an astrocyte maturation medium.
Cells were lysed in TRIzol and total RNA was extracted with phenol-chloroform followed by spin columns from the RNEasy Mini Kit (74104, QIAGEN). RNA quality and quantity was determined using a NanoDrop spectrophotometer. The RNA was then reverse transcribed using the iScript cDNA synthesis kit (1708891, Bio-Rad) according to the manufacturer's instructions. […]

concentration in brain tissue ([2]; chronic treatment, 10 mg/kg i.p. daily): equal to the IC50
brain permeance ([2]; mice, 10 mg/kg i.p.): brain permeant
SMILES: Nc1cc(F)ccc1NC(=O)/C=C/c1cnn(C/C=C/c2ccccc2)c1 [RGFP966]
levels of acetylated histone 4 (AcH4) [1]: increased
levels of toxic very long chain fatty acids (VLCFA) [3]: decreased levels
ability of reactive astrocytes to cross present antigen on MHC Class I ([4]; FIG. 3): decrease
inhibition of antigen cross-presentation by MHC Class I ([4]; at either 2.5 or 5.0 μM): completely inhibited
inhibition of other HDAC isozymes [5]: no inhibition
percentage of GFAP+ astrocytes expressing GBP2 ([6]; 10 mg/kg i.p. daily plus 5 mg/kg LPS, frontal cortex and corpus callosum, compared to vehicle plus LPS): lower percentage (about half)
levels of GBP2+ reactive astrocytes ([6]; chronic treatment prior to LPS challenge, frontal cortex, cerebellum, brainstem, and corpus callosum): decreased levels
reduction of CCL5 secretion ([7]; 2.5 μM): about 70%
reduction of CCL5 secretion ([7]; 5.0 μM): more than 80%
secretion of CCL5 by reactive astrocytes ([7]; FIG. 4): significantly decrease
expression of genes associated with DRAs, Gbp2 and Psmb8 [8]: decreased expression
